The subject of data set [1] is black and white patients with mild-to-moderate hypertension. As to conditions: for Active Renin (% change) / ΔDBP / ΔSBP: baseline to Week 16.
Data set [2] has as its system patients with low-renin hypertension. As to the kind of experiment: Eplerenone versus losartan in low-renin hypertension, 16 weeks (Examples A-16, D-5). In kind it is in vivo, human. From the text:
Patients will continue on therapy until Week 16. Table […] illustrates the above-described dosing scheme. […] Plasma renin will be determined at screening; serum aldosterone, plasma renin, and plasma cortisol will be determined at Weeks 0, 8, and 16. […] A 12-lead electrocardiogram will be done at Weeks 0 and 16. Physical examinations will be completed at screening and at Week 16. […] Secondary measures of efficacy will be the following: […] Study design is illustrated in FIG. D-16. […] At Weeks 8 and 16, BP, RAAS hormone profile, and safety were assessed.

The test system of data set [3] is diabetic type 2 patients with hypertension and microalbuminuria. As to the kind of experiment: Eplerenone, enalapril and combination in diabetic hypertensives with microalbuminuria, 24 weeks (Examples A-18, D-7). The class given is in vivo, human.
For data set [4], the system named is patients with hypertension and left ventricular hypertrophy. As to the kind of experiment: Eplerenone, enalapril and combination in left ventricular hypertrophy, 9 months (Examples A-15, D-4). The class given is in vivo, human. From the text: Table […] illustrates forth the above-described dosing scheme. […] Additional laboratory assessments of blood for clinical safety will be done monthly. Routine urinalysis will be done every three months. […] A blood sample for genotyping will be collected at Week 0. At screening and at Month 9, a 12-lead ECG and physical examination will be done. […] In case of early termination, an MRI and blood sample for TSH will be done for those patients who have received double-blind treatment for at least three months. At Weeks 0, 12 and Months 6 and 9, pharmacoeconomic data will be collected on all patients. The primary measure of efficacy is the change from baseline in LVM, as assessed by MRI, in the eplerenone group versus the enalapril group. […] Secondary measures of efficacy will be the following: […] (3) aortic compliance and ventricular filling parameters; and (4) special studies (PIIINP, microalbuminuria, PAI, and tPA). Additionally, the long-term safety and tolerability of the three treatment groups will be compared. […] The study design is illustrated in FIG. D-10. […] Left ventricular mass (LVM) (assayed by MRI), BP, collagen turnover, and tolerability were assessed at the 9-month endpoint.

Data set [5] concerns patients with mild-to-moderate hypertension. The experiment in a line: Eplerenone versus enalapril in essential hypertension, 12-month titration-to-effect (Example D-3). In kind it is in vivo, human. Here is the method:
The study design is illustrated in FIG. D-6. Patients with mild-to-moderate hypertension (diastolic blood pressure [DBP]≧95 mmHg and <110 mmHg) were randomized to receive initially EPL 50 mg QD (n=253) or ENAL 10 mg QD (n=246). If DBP ≧90 mmHg at Weeks 4, 8, 12, 16, or 20, the dose of study medication was up-titrated incrementally to EPL 100 mg and 200 mg QD, or ENAL 20 mg and 40 mg QD. […] At 24 wks and 12 months, changes in BP, RAAS hormone profile, urinary albumin excretion (urinary albumin: creatinine ratio [UACR]), laboratory tests, safety, and adverse events (AEs) were assessed.

The subject of data set [6] is patients with mild to moderate hypertension. The experiment in a line: Eplerenone/HCTZ dose ranging factorial design study (Example D-2). In kind it is in vivo, human. As to conditions: eplerenone 25, 50 or 200 mg daily; HCTZ 12.5 or 25 mg daily; 8 weeks. The method, then: Patients were assessed at weeks 0, 2, 4, and 8. Study assessments at protocol-specified timepoints included blood pressure (BP), heart rate, clinical laboratory analyses, vital signs, physical examinations, 12-lead ECG, and monitoring of adverse events. A total of 614 patients were randomized.

Data set [7] deals with captopril-treated saline-drinking SHRSP. As to the kind of experiment: Angiotensin II-induced renal damage in captopril-treated saline-drinking SHRSP, Protocol 2 (Example A-8). The class given is in vivo, rat (SHRSP/A3N). Here is the method: Animals. Studies were conducted in accordance with institutional guidelines using male SHRSP/A3N (generations F-75 to F-78), n=37, from our local colony. These animals were bred from NIH stock, derived from the SHRSP/A3N substrain described originally by Okamoto and coworkers (Okamoto K et al. Circ. Res. 34 and 35 (suppl I):I-143-I-153.). All animals were housed in a room maintained on a 12:12-h light:dark-cycle and an ambient temperature of 22±1° C. in the Animal Care Facility at New York Medical College. Rats were weaned at 4 weeks of age and allowed free access to Purina Lab Chow 5001 (Ralston Purina, St. Louis, Mo.) and tap water until the initiation of experimental protocols.
SHRSP were placed on Stroke-Prone Rodent Diet (#39-288, Zeigler Bros Inc., Gardners, Pa.) and 1% NaCl drinking solution ad libitum starting at 8.3 weeks of age. […] Animals were handled and weighed daily. Urine samples were collected for the assessment of proteinuria. Systolic blood pressure and heart rate were measured each week. After 2 weeks of treatment, animals were decapitated, trunk blood was collected into chilled EDTA tubes, and the kidneys were removed, blotted dry, and immediately weighed. Coronal sections of kidney were fixed and later processed for light microscopic evaluation.
Assays and Analyses. Systolic blood pressure and heart rate of awake animals were measured by tail-cuff plethysmography using a Natsume KN-210 manometer and tachometer (Peninsula Laboratories Inc., Belmont, Calif.). Rats were warmed at 37° C. for 10 min and allowed to rest quietly in a Lucite chamber before measurement of blood pressure. Measurements of urine volume were made gravimetrically. Urinary protein concentration was determined by the sulfosalicylic acid turbidity method. Plasma aldosterone was measured by radioimmunoassay using ^125I-aldosterone as a tracer (Coat-a Count Aldosterone, Diagnostic Products Co., Los Angeles, Calif.).
Histology. Kidneys were preserved in 10% phosphate-buffered formalin. Coronal sections (2-3 μm) were stained with hematoxylin and eosin and examined by light microscopy in a blinded fashion as previously described (Stier C T et al. J Pharmacol Exp Ther (1992) 260:1410-1415). Glomerular damage was categorized as ischemic or thrombotic. Ischemic lesions were defined as retraction of glomerular capillary tufts with or without appreciable mesangiolysis. Glomerular thrombotic lesions were defined as any one of a combination of the following: segmental to global fibrinoid necrosis, focal thrombosis of glomerular capillaries, swelling and proliferation of intracapillary (endothelial and mesangial) and/or extracapillary cells (crescents), and expansion of reticulated mesangial matrix with or without significant hypercellularity. […] Vascular thrombotic lesions were defined as any one or a combination of the following: mural fibrinoid necrosis, extravasation and fragmentation of red blood cells, and luminal and/or mural thrombosis. Proliferative arteriopathy was characterized by proliferation of markedly swollen myointimal cells with swollen round to ovoid vesicular nuclei surrounded by mucinous extracellular matrix (“onion skinning”) often resulting in nodular thickening. Vascular damage was expressed as the number of arteries and arterioles with lesions per 100 glomeruli. The presence of casts and tubular (ischemic) retraction and simplification was assessed semiquantitatively.
Statistical Analysis. Significant effects with respect to treatment and time were determined by two-way analysis of variance. Data with only one grouping variable were analyzed statistically by Student's unpaired t tests. When more than two groups were compared, one-way analysis of variance was performed followed by the post-hoc Newman-Keul's multiple comparison test. Data were analyzed using version 2.01 of the GraphPad Prism statistical software package (GraphPad Software Inc., San Diego, Calif.). P<0.05 was considered statistically significant.

Where [8] appears, read: Week 8 (monotherapy), EPL 100-200 mg QD, LOS 50-100 mg QD.
Where [9] appears, read: Week 16, after allowed addition of HCTZ.
Where [10] appears, read: 9-month endpoint, forced titration.
Where [11] appears, read: 9-month endpoint, EPL 200 mg, ENAL 40 mg, EPL 200 mg/ENAL 10 mg.
Where [12] appears, read: Week 24, EPL 50-200 mg QD, ENAL 10-40 mg QD titrated.
[13] abbreviates: captopril 50 mg/kg/d, angiotensin II 25 ng/min, eplerenone 100 mg/kg/d, 2 weeks.

Read-outs that look alike come from different tables or passages of the source.

For `CCCCc1nc(Cl)c(CO)n1Cc1ccc(-c2ccccc2-c2nn[nH]n2)cc1` [Losartan, reference compound], in data set [1] (All Patients), the “Active Renin (% change)” value is given as “+67.1%”, the ΔDBP was −6.9 mmHg and the ΔSBP is −6.3 mmHg. Also, in data set [1] (Black Patients), the “Active Renin (% change)” value is recorded as “+40.0%”, the ΔDBP was −6.0 mmHg and the ΔSBP is on record as −5.3 mmHg. In data set [1] (Week 16, EPL 50-200 mg QD, LOS 50-100 mg QD), the “adjusted mean percent change from baseline in UACR” value is on record as −18.2%. In data set [1] (White Patients), the “Active Renin (% change)” value is given as “+113.7%” and the ΔDBP is on record as −8.4 mmHg. Further, in data set [1] (human, in vivo), the safety and tolerability result is “safe and well-tolerated”. The “cumulative percentage of patients requiring HCTZ add-on therapy” value in data set [2] (16 weeks) was 55.6%. Further, in data set [2] (Week 8), the “increase in active renin levels” value is listed as “+63.8%” and the “increase in serum aldosterone levels” value is −18.7%. In addition, in data set [2] (setting [8]), the “mean change from baseline in DBP” value is recorded as −6.7 mmHg and the “mean change from baseline in SBP” value was −10.1 mmHg. Moreover, in data set [2] (Week 16), the “increase in active renin levels” value is on record as “+83.3%” and the “increase in serum aldosterone levels” value is listed as −5.5%. Further, in data set [2] (setting [9]), the “mean change from baseline in DBP” value is listed as −9.8 mmHg and the “mean change from baseline in SBP” value is recorded as −15.0 mmHg.

Turning to `CCOC(=O)[C@H](CCc1ccccc1)N[C@@H](C)C(=O)N1CCC[C@H]1C(=O)O` [Enalapril, reference compound], in data set [3] (24 weeks), the “patients withdrawn for hyperkalemia” value is given as 2 patients and the “subjects with elevated K+ (≧6.0 mEq/L)” value turned out to be 2 subjects. For the same compound, in data set [3] (EPL 200 mg QD, ENAL 40 mg QD, EPL 200 mg/ENAL 10 mg, 24 weeks), the “patients requiring addition of hydrochlorothiazide (HCTZ)” value is 43/81. In addition, in data set [3] (Week 8), the “Adjusted mean change ΔDBP (Week 8-baseline)” value is −11.6 and the “Adjusted mean change ΔSBP (Week 8-baseline)” value is recorded as −15.4. In data set [3] (Week 24), the “Adjusted mean change ΔDBP (Week 24-baseline)” value is given as −15.0 and the “Adjusted mean change ΔSBP (Week 24-baseline)” value is recorded as −20.4. Moreover, the tolerability entry in data set [3] (in vivo) is given as “well tolerated”. In addition, in data set [4] (setting [10]), the “DBP Adjusted mean change” value was −13.0 mmHg and the “SBP Adjusted mean change” value was −22.5 mmHg. Further, in data set [4] (setting [11]), the “decrease from baseline in UACR” value is recorded as −39.1% and the “decrease from baseline in collagen turnover” value is recorded as −7.3%. Moreover, the patients experiencing coughing in data set [4] (9-month study) is reported as 14.1%. Also, the “LVM Adjusted mean change [g (SE)]” value in data set [4] (left ventricular mass by MRI, 9-month endpoint, forced titration (EPL 50-200 mg, ENAL 10-40 mg)) is −19.7 (3.20) g. For the same compound, in data set [5] (12-month study), the patients experiencing coughing is recorded as 6.5%, the patients experiencing hyperglycemia was found to be 2.8% and the “patients experiencing urinary tract infections (UTI)” value was found to be 2.8%. Besides, in data set [5] (12 months), the DBP change is −14.1 mmHg and the SBP change is listed as −14.8 mmHg. In data set [5] (setting [12]), this compound showed a DBP change of −11.3 mmHg and an SBP change of −12.7 mmHg. Besides, the “reduction in UACR” value in data set [5] (Week 24, patients with baseline UACR ≧30 mg/g) is −25.7%. Besides, the safety and tolerability result in data set [5] (in vivo) is “safe and well tolerated”.

As for `NS(=O)(=O)c1cc2c(cc1Cl)NCNS2(=O)=O` [HCTZ, reference compound], in data set [6], the “DBP, change from Baseline to the Final Visit” value was “dose-dependent decreases in DBP” and the “SBP, change from Baseline to the Final Visit” value was “dose-dependent decreases in SBP”.

For “Angiotensin II: Angiotensin II (human type) infused by osmotic minipump (DRVYIHPF; Angiotensin-2; UniProt P01019 25-32, looked up)”, in data set [7] (setting [13]), the “Glomerular damage, Ischemic” value is on record as 13 ± 3 lesions/100 glomeruli; the “Glomerular damage, Thrombotic” value is on record as 2 ± 1 lesions/100 glomeruli; the “Glomerular damage, Total” value is listed as 15 ± 3 lesions/100 glomeruli; the “Renal arteriopathy, Proliferative” value stood at 1 ± 1 lesions/100 glomeruli. Moreover, in data set [7] (setting [13]), the “Renal arteriopathy, Thrombotic” value is 15 lesions/100 glomeruli; the “Renal arteriopathy, Total” value worked out at 16 ± 2 lesions/100 glomeruli; the plasma aldosterone concentration was 404 ± 160 pg/mL. For the same compound, the renal damage in data set [7] (captopril + angiotensin II 25 ng/min, with eplerenone 100 mg/kg/d or vehicle) is on record as 18±4%. Besides, the “proteinuria (urinary protein excretion)” value in data set [7] (end of study (2 weeks), captopril 50 mg/kg/d, angiotensin II 25 ng/min s.c., eplerenone 100 mg/kg/d by gavage) was 96 ± 13 mg/day.

In the case of `C[C@H](CS)C(=O)N1CCC[C@H]1C(=O)O` [Captopril], in data set [7] (setting [13]), the “Glomerular damage, Total” value stood at 0 ± 0 lesions/100 glomeruli; the “Renal arteriopathy, Proliferative” value was found to be 0 ± 0 lesions/100 glomeruli; the “Renal arteriopathy, Thrombotic” value is recorded as 0 ± 0 lesions/100 glomeruli; the “Renal arteriopathy, Total” value was 0 ± 0 lesions/100 glomeruli. For the same compound, in data set [7] (setting [13]), the plasma aldosterone concentration worked out at 107 ± 26 pg/mL; the “tubules with ischemic retraction and simplification” value is listed as “absent”.

(Values after patent publication US20070191324A1, “Methods for treatment or prophylaxis of aldosterone-mediated pathogenic effects in a subject using an epoxy-steroidal aldosterone antagonist” (priority 1999, published 2007).)
